Data on 2 compounds can be found in patent publication US8507219B2, “Method of treating inflammation with statins” (MUSC Foundation for Research Development, priority 1997, dated 2013).

A word on the inhibition: it is the relative decrease from the control value, in per cent. The low end stands for a response near the control, the high end for a response far below the control.

In data set [1] the test system is TNF-α production in rat primary microglia. Description: LPS-induced TNF-α production (ELISA) in rat primary microglia. The class given is cell-based. To be noted: 10 μM forskolin or 20 μM rolipram 15 min, then LPS 1.0 μg/ml, 24 h. As to the method:
(§1) Determination of TNF-α and IL-1β in culture supernatants Cells were stimulated with LPS in serum-free media for 24 h in the presence or absence of forskolin or rolipram, and concentrations of TNF-α and IL-1β were measured in culture supernatants by using high-sensitivity enzyme-linked immunosorbent assay (R&D Systems, USA) according to the manufacturer's instructions.
On the technique in general: ELISA stands for enzyme-linked immunosorbent assay.

In data set [2] the test system is IL-1β production in rat primary microglia. As to the kind of experiment: LPS-induced IL-1β production (ELISA) in rat primary microglia. To be noted: 10 μM forskolin or 20 μM rolipram 15 min, then LPS 1.0 μg/ml, 24 h. Type of data set: cell-based. As to the method:
as §1

The test system of data set [3] is iNOS activity in rat primary astrocytes. Description: iNOS activity (arginine to citrulline) in homogenates of treated rat primary astrocytes. Type of data set: cell-based. To be noted: Rattus norvegicus, Astrocyte, LPS 1 μg/ml, 24 h. As to the method:
NOS activity was measured directly by production of L-[2,3,4,5-^3H]citrulline from L-[2,3,4,5-^3H] arginine (Feinstein et al., 1994a). […] Assays were carried out for 30 to 40 min and the production of L-[2,3,4,5-^3H] citrulline was linear. The reactions were stopped by addition of 800 μl of ice-cold 20 mM HEPES (pH 5.5) followed by addition of 2 ml of Dowex-50W equilibrated in the same buffer. The samples were then centrifuged and the concentration of L-[^3H]citrulline was determined in the supernatant by liquid scintillation counting.
Dose Dependence of Forskolin Inhibition of the LPS Stimulation of iNOS Astrocytes were incubated with different concentrations of forskolin 15 min before the addition of 1 μg/ml LPS, and after 24 h the iNOS activity was measured as nitrite concentrations in the supernatant and conversion of arginine to citrulline in the cellular homogenates (FIG. 1). The level of nitrite and iNOS activity were inhibited to a similar degree at all the concentrations of forskolin tested. […] . […] This may be due to the fact that PKA was already completely activated in extracts of cells incubated with 10 μM forskolin. The PKA activity increased with the increase in forskolin concentration. The reciprocal relationship of production of NO and iNOS activity with PKA activity supports the conclusion that PKA plays a pivotal role in the regulation of iNOS expression in astrocytes.

A further data set concerns PKA. As to the kind of experiment: PKA activity (Kemptide phosphorylation) in rat primary astrocytes. The class given is cell-based. To be noted: optimal concentration of forskolin, LPS 1.0 μg/ml, 1 h; taken as 100%.
In data set [4] the test system is control human skin fibroblasts. Description: β-oxidation of lignoceric acid in control human skin fibroblasts. The class given is cell-based. To be noted: 72 h; forskolin 4 μM; 1,9 dideoxy forskolin 4 μM; 8-Br-cAMP 50 μM; H-89 1 μM; myristoylated PKI 0.2 μM; Control 565.2 ± 48.3.
The test system of data set [5] is cultured skin fibroblasts of X-ALD. As to the kind of experiment: VLCFA ratios (C26:0/C22:0, C24:0/C22:0) in X-ALD skin fibroblasts. The class given is cell-based, human.
The test system of the next data set is control skin fibroblasts. As to the kind of experiment: VLCFA ratios in control skin fibroblasts. The class given is cell-based, human. To be noted: two weeks forskolin. The procedure:
Measurement of VLCFA in Fibroblasts Fatty acid methyl ester (FAME) was prepared as described previously by Lepage and Roy (1986) with modifications. Fibroblast cells, suspended in HBSS, were disrupted by sonication to form a homogeneous solution. An aliquot (200 μl) of this solution was transferred to a glass tube and […] heptacosanoic (27:0) acid was added as internal standard and lipids were extracted by Folch partition. Fatty acids were transesterified with acetyl chloride (200 μl) in the presence of methanol and benzene (4:1) for 2 h at 100° C. The solution was cooled down to room temperature followed by addition of 5 ml 6% potassium carbonate solution at ice-cooled temperature. Isolation and purification of FAME were carried out as detailed by Dacremont et al. (1995). […]

Data set [6] has as its system TNF-α production in rat primary astrocytes. As to the kind of experiment: LPS-induced TNF-α production (ELISA) in rat primary astrocytes. Type of data set: cell-based. To be noted: forskolin 10 μM; 8-Br-cAMP 100 μM; rolipram 20 μM; H-89 2 μM; myristoylated PKI 0.4 μM. As to the method: as §1
For data set [7], the system named is IL-1β production in rat primary astrocytes. Description: LPS-induced IL-1β production (ELISA) in rat primary astrocytes. Type of data set: cell-based. To be noted: forskolin 10 μM; 8-Br-cAMP 100 μM; rolipram 20 μM; H-89 2 μM; myristoylated PKI 0.4 μM. The procedure:
as §1

The test system of data set [8] is cultured skin fibroblasts of X-ALD. Description: β-oxidation of lignoceric acid in cultured skin fibroblasts of X-ALD. The class given is cell-based, human.
For data set [9] the following is noted: inferred from reports in mice and marmoset (Sommer et al., 1995); cited from earlier work.

In the case of `C=C[C@@]1(C)CC(=O)[C@]2(O)[C@@]3(C)[C@@H](O)CCC(C)(C)[C@@H]3[C@H](O)[C@H](OC(C)=O)[C@@]2(C)O1` [forskolin], the “Production of TNF-α” value in data set [1] was 0.9 ± 0.1 ng/24 h/mg protein. Besides, the “Production of IL-1β” value in data set [2] amounted to 1.9 ± 0.2 ng/24 h/mg protein. The same compound registered an inhibition at 0.1 µM in data set [3] (forskolin 0.1 μM (lowest dose with significant effect)) of 30%. Further, the inhibition at 10 µM in data set [3] (forskolin 10 μM) was approximately 90%. Also, in the data set with PKA, the PKA activity is 74.4 ± 9.4 pmol/min/mg. Also, the “Lignoceric acid β-oxidation” value in data set [4] is on record as 885.3 ± 62.1 pmol/h/mg protein. Besides, the “days of treatment until the ratios of C26:0/C22:0 and C24:0/C22:0 decreased to the normal level” value in data set [5] (X-ALD fibroblasts, forskolin 4 μM, lovastatin 5 μM, combination of lovastatin and NaPA) is reported as 12 to 15 days. In addition, the “ratio of C26:0/C22:0” value with control skin fibroblasts (from 0.04) was found to be 0.029. Moreover, the “ratio of C24:0/C22:0” value in the data set on control skin fibroblasts (from 1.23) is on record as 1.12.
As for `COc1ccc(C2CNC(=O)C2)cc1OC1CCCC1` (centres unmarked) [Rolipram], the “LPS-stimulated production of TNF-α” value in data set [6] is “inhibited the LPS-stimulated production”. In addition, in data set [7], the “LPS-stimulated production of IL-1β” value is on record as “inhibited the LPS-stimulated production”. Further, in data set [1], the “Production of TNF-α” value came out at 1.2 ± 0.09 ng/24 h/mg protein. Besides, the “Production of IL-1β” value in [2] worked out at 2.3 ± 0.3 ng/24 h/mg protein. The “Lignoceric acid β-oxidation” value in [8] (72 h, forskolin 4 μM, 8-Br-cAMP 50 μM, rolipram 10 μM, H-89 1 μM, myristoylated PKI 0.2 μM) is “stimulated lignoceric acid β-oxidation”. Also, in data set [8] (rolipram, two weeks, X-ALD fibroblasts with mutation or deletion), the “increase of the oxidation of lignoceric acid” value was in the range of 50 to 65%. For the same compound, the “ratios of C26:0/C22:0 and C24:0/C22:0 / level of VLCFA” value in data set [5] (about 15 days of treatment) is listed as “normalized the levels of VLCFA in these cell lines”. The “crossing of the blood brain barrier” value in data set [9] is “does cross the blood brain barrier”.
